Results reported in paper PMC8623418, “Novel Multitarget Hydroxamic Acids with a Natural Origin CAP Group against Alzheimer’s Disease: Synthesis, Docking and Biological Evaluation” (Pharmaceutics, 2021).
Where two headings read alike, the source gives them in different places.

Experiments:
[1] = test system: lipid peroxidation (LPO) of rat brain homogenate; experiment: Lipid peroxidation (LPO) of rat brain homogenate, TBARS test; type: biochemical; settings: substances at 100 μM, mean ± SEM; for % of Activity, Inhibition of LPO, Fe (II): Fe (II)-induced; for % of Activity, Inhibition of LPO, t-BHP: t-BHP-induced
Method: To obtain the brain homogenate, rats preliminarily anesthetized with CO2 were decapitated with a guillotine. The brain was homogenized in a buffer containing KCl (120 mM) and HEPES (20 mM), pH = 7.4 at 4 °C, and centrifuged at 1500 rpm to obtain a supernatant. The protein was quantified according to the standard microbiuret method.
To investigate the effect of the compounds on lipid peroxidation (LPO) of rat brain homogenate, we used the modified version of the TBARS test, which is based on the reaction of 2-thiobarbituric acid with the end LPO product—malonic dialdehyde (MDA). The plate well, according to the experimental scheme, contained the compounds under study (100 μM), rat brain homogenate (2 mg/mL), as well as ferrous iron ions ([…]) at a concentration of 500 μM and 1.6 mM tert-butyl hydroxyperoxide as an initiator. After 30 min of incubation at 37 °C, TBARS reagent was added to all samples, incubated for 90 min at 90 °C, and centrifuged at 6000 rpm for 15 min. The optical density of the selected supernatant was measured on a Victor 3 plate reader (Perkin Elmer) at λ = 540 nm.
A rat brain homogenate preparation containing fragments of cell membranes was used as a model system to investigate the antioxidant activity of the hydroxamic acids. To initiate the process of lipid peroxidation, ferrous ions were used to trigger the Fenton reaction, during which the iron valence changes and a highly reactive hydroxyl radical is formed, and tert-butyl hydroxyperoxide as a direct source of free radicals.

[2] = DPPH test of antiradical activity; settings: substances at 100 μM, mean ± SEM
Method: The DPPH test was used to examine antiradical activity based on the ability of a stable chromogen radical of 2,2-diphenyl-1-picrylhydrazyl (DPPH) to remove a hydrogen atom, which is accompanied by a change in the absorption maximum in the electronic absorption spectra. The amount of reduced DPPH was measured using a Cytation ™ 3 multifunctional plate analyzer (BioTek Instruments, Inc., Winooski, VT, USA) at a wavelength of 517 nm.
The antiradical activity of the test compounds was evaluated by the DPPH test, based on the ability of antioxidants to donate an electron to the stable chromogen radical DPPH, converting it into a nonradical form and neutralizing its activity. […] The chromogenic free radical DPPH used in this test has a large size, and substances even with a similar chemical structure may have different antiradical properties due to spatially difficult access.

SH-SY5Y cells = experiment: MTT cell viability, SH-SY5Y; type: cell-based; settings: Homo sapiens, MTT test
Method: (§1) The effect of the hydroxamic acids on the viability of cells obtained from human embryonic kidneys, HEK 293, as well as the native form of human neuroblastoma, SH-SY5Y, was evaluated in the MTT test. Using a multifunctional flatbed analyzer, Cytation™3 (BioTek Instruments, Inc., Winooski, VT, USA), the optical density was determined at a wavelength of 530 nm. Based on the dose-dependent curves, the concentration values leading to 50% inhibition of cell population growth (IC50) were calculated.
(§2) Due to the fact that most compounds of the class of hydroxamic acids have high cytotoxic activity and are mainly used as anticancer drugs, their use as neuroprotective drugs is limited. Since the goal of our work was to search for agents for the pharmacological correction of neurodegenerative diseases, a necessary part of the biological activity study of the synthesized hydroxamic acids was to determine their effect on the survival of cell cultures. In our work, we used neuron-like neuroblastoma cells SH-SY5Y and a healthy cell line isolated from the human embryonic kidney, HEK 293.

HEK 293 cells = experiment: MTT cell viability, HEK 293; type: cell-based; settings: Homo sapiens, HEK293; HEK-293, MTT test
Method: as §1, §2

HDAC6 = molecular target: T1, HDAC6 (Homo sapiens, UniProt Q9UBN7); experiment: HDAC6 enzyme activity, FLUOR DE LYS fluorometric kit; type: biochemical
T1 construct: purchased Enzo Life Sciences (Enzo Biochem, New York, NY, USA)
T1 sequence (Q9UBN7 1-1215): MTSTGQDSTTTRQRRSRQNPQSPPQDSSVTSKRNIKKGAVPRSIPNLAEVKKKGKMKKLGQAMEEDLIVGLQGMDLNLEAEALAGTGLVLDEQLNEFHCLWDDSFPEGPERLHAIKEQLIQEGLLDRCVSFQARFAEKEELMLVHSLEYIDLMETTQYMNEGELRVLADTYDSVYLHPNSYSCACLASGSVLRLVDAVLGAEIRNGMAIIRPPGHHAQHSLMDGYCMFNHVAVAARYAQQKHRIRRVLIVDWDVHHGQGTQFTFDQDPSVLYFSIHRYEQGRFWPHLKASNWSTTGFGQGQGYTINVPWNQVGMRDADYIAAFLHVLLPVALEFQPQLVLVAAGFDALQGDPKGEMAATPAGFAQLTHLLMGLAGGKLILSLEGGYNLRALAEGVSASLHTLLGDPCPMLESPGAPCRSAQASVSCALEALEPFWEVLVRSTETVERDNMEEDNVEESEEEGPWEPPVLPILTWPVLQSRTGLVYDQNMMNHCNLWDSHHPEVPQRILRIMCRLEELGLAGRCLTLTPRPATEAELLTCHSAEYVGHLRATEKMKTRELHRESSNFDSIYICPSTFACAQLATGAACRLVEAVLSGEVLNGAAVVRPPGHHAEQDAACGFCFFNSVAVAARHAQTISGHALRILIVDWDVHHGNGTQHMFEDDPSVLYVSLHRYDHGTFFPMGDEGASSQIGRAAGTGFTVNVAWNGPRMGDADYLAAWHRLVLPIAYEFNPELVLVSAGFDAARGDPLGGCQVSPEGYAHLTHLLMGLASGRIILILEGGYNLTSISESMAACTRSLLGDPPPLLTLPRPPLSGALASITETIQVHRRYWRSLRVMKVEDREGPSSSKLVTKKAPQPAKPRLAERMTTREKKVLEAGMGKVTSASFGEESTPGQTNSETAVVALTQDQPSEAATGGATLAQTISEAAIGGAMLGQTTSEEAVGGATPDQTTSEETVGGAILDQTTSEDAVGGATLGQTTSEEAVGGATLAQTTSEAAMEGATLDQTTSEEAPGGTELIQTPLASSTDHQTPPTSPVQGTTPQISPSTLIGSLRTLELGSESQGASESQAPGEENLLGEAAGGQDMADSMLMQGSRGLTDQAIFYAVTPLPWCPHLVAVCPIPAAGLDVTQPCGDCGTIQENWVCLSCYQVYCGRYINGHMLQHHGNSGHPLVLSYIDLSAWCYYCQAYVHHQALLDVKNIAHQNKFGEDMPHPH

β-amyloid 1–40 = β-amyloid 1–40 aggregation, Thioflavin T fluorescence; type: biochemical; settings: 100 μM, 72 h incubation
Method: (§3) The effect of the studied compounds on the aggregation of β-amyloid (1–40/1–42) was analyzed using the method of recording Thioflavin T fluorescence (10 µM) for 72 h at 37 °C. The fluorescence signal was measured using a multifunctional flatbed analyzer, the Cytation ™ 3 (BioTek Instruments, Inc., Winooski, VT, USA), at λex = 450 nm, λem = 480 nm.
(§4) The effect of hydroxamic acids on the stage of aggregation of the pathological β-amyloid peptide was investigated for 72 h using two model systems—fragments Aβ1–40 and Aβ1–42. The fluorophore Thioflavin T was used as an indicator of the ongoing fibrillation process, the interaction of which with proteins in the state of amyloid fibrils leads to an increase in the fluorescence signal.

β-amyloid 1–42 = test system: T2, β-amyloid 1–42; experiment: β-amyloid 1–42 aggregation, Thioflavin T fluorescence; type: biochemical; settings: 100 μM, 72 h incubation
T2 construct: fragments Aβ1–40 and Aβ1–42
Method: as §3, §4

[3] = mean ± SEM, read-out: IC50 HDAC6 Inhibitory Activity

Structure (SMILES): CC(/C=C/C(=O)NO)=C\[C@@H](C)C(=O)c1ccc(N(C)C)cc1 [Trich. A, Trichostatin A, reference compound]
- % of Activity, Inhibition of LPO, Fe (II) [1]: - (The ‘-’ mark indicates the lack of activity of the test substances (≤10%) in a particular test)
- % of Activity, Inhibition of LPO, t-BHP [1]: - (The ‘-’ mark indicates the lack of activity of the test substances (≤10%) in a particular test)
- % of Activity, Antiradical Activity [2]: - (The ‘-’ mark indicates the lack of activity of the test substances (≤10%) in a particular test)

Structure (SMILES): Cc1c(C)c2c(c(C)c1O)CCC(C)(C(=O)O)O2 (stereo not drawn) [Trolox, reference compound]
- % of Activity, Inhibition of LPO, Fe (II) [1]: 97.21 ± 4.09%
- % of Activity, Inhibition of LPO, t-BHP [1]: 99.11 ± 3.72%

Structure (SMILES): O=C(NO)C12CC3CC(CC(C3)C1)C2 [compound 1, N-Hydroxyadamantane-1-Carboxamide]
- % of Activity, Inhibition of LPO, Fe (II) [1]: - (The ‘-’ mark indicates the lack of activity of the test substances (≤10%) in a particular test)
- % of Activity, Inhibition of LPO, t-BHP [1]: - (The ‘-’ mark indicates the lack of activity of the test substances (≤10%) in a particular test)
- % of Activity, Antiradical Activity [2]: - (The ‘-’ mark indicates the lack of activity of the test substances (≤10%) in a particular test)
- IC50 (SH-SY5Y cells): > 100 µM
- IC50 (HEK 293 cells): > 100 µM
- melting point: 149 to 149.3 °C

Structure (SMILES): O=C(NO)C1C2CC3CC(C2)CC1C3 (stereo not drawn) [compound 2, N-Hydroxyadamantane-2-Carboxamide]
- % of Activity, Inhibition of LPO, Fe (II) [1]: - (The ‘-’ mark indicates the lack of activity of the test substances (≤10%) in a particular test)
- % of Activity, Inhibition of LPO, t-BHP [1]: - (The ‘-’ mark indicates the lack of activity of the test substances (≤10%) in a particular test)
- % of Activity, Antiradical Activity [2]: 32.02 ± 3.33%
- IC50 (SH-SY5Y cells): > 100 µM
- IC50 (HEK 293 cells): > 100 µM
- melting point: 173.4 °C

Structure (SMILES): CC1(C)[C@@H]2CC[C@@]1(C)[C@H](NC(=O)CCCCCCC(=O)NO)C2 [compound 11, N^1-Hydroxy-N^8-((1R,2R,4R)-1,7,7-Trimethylbicyclo [2.2.1]heptan-2-yl)octanediamide]
- % of Activity, Inhibition of LPO, Fe (II) [1]: 28.39 ±7.41%
- % of Activity, Inhibition of LPO, t-BHP [1]: 35.96 ± 1.99%
- % of Activity, Antiradical Activity [2]: 22.22 ± 1.40%
- IC50 (HDAC6; [3]): 0.69 ± 0.02 µM
- IC50 (SH-SY5Y cells): 51.9 ± 3.56 µM
- IC50 (HEK 293 cells): > 100 µM
- melting point: 94.8 °C

Structure (SMILES): CC1(C)[C@@H]2CC[C@@]1(C)[C@H](NC(=O)CCCCCCCC(=O)NO)C2 [compound 12, N^1-Hydroxy-N^9-((1R,2R,4R)-1,7,7-Trimethylbicyclo [2.2.1]heptan-2-yl)nonanediamide]
- % of Activity, Inhibition of LPO, Fe (II) [1]: 44.02 ± 1.57%
- % of Activity, Inhibition of LPO, t-BHP [1]: 30.36 ± 1.98%
- % of Activity, Antiradical Activity [2]: - (The ‘-’ mark indicates the lack of activity of the test substances (≤10%) in a particular test)
- IC50 (HDAC6; [3]): 4.06 ± 0.48 µM
- IC50 (SH-SY5Y cells): > 100 µM
- IC50 (HEK 293 cells): > 100 µM
- melting point: 50.4 °C

Structure (SMILES): CC1(C)[C@H]2CC[C@](C)(C2)[C@H]1NC(=O)CCCCCCC(=O)NO [compound 13, N^1-Hydroxy-N^8-((1R,2R,4S)-1,3,3-Trimethylbicyclo[2.2.1]heptan-2-yl)octanediamide]
- % of Activity, Inhibition of LPO, Fe (II) [1]: 28.90 ± 3.38%
- % of Activity, Inhibition of LPO, t-BHP [1]: 24.02 ± 3.44%
- % of Activity, Antiradical Activity [2]: - (The ‘-’ mark indicates the lack of activity of the test substances (≤10%) in a particular test)
- IC50 (HDAC6; [3]): 9.44 ± 0.74 µM
- IC50 (SH-SY5Y cells): > 100 µM
- IC50 (HEK 293 cells): > 100 µM
- melting point: 45.1 °C

Structure (SMILES): CC1(C)[C@H]2CC[C@](C)(C2)[C@H]1NC(=O)CCCCCCCC(=O)NO [compound 14, N^1-Hydroxy-N^9-((1R,2R,4S)-1,3,3-Trimethylbicyclo[2.2.1]heptan-2-yl)nonanediamide]
- % of Activity, Inhibition of LPO, Fe (II) [1]: 37.91 ± 1.08%
- % of Activity, Inhibition of LPO, t-BHP [1]: 22.62 ± 4.31%
- % of Activity, Antiradical Activity [2]: - (The ‘-’ mark indicates the lack of activity of the test substances (≤10%) in a particular test)
- IC50 (HDAC6; [3]): 4.48 ± 0.13 µM
- IC50 (SH-SY5Y cells): > 100 µM
- IC50 (HEK 293 cells): > 100 µM
- melting point: 44.9 °C

Structure (SMILES): CC1(C)C(NC(=O)/C=C/c2ccc(C(=O)NO)cc2)[C@@]2(C)CC[C@H]1C2 (stereo partly drawn) [compound 24, N-Hydroxy-4-((E)-3-Oxo-3-(((1S,4S)-1,3,3-Trimethylbicyclo[2.2.1]heptan-2-yl)amino)prop-1-en-1-yl)benzamide]
- % of Activity, Inhibition of LPO, Fe (II) [1]: 34.16 ± 1.37%
- % of Activity, Inhibition of LPO, t-BHP [1]: 20.63 ± 3.92%
- % of Activity, Antiradical Activity [2]: 20.32 ± 0.41%
- IC50 (HDAC6; Table S2, used for correlation with pKi, read-out: pIC50 (from experimental HDAC6 IC50) (converted)): 15.3 µM
- IC50 (HDAC6; [3]): ≤ 6.5 µM
- Effect on β-amyloid 1–40 aggregation (β-amyloid 1–40): noticeable fibrillation inhibition
- Effect on β-amyloid 1–42 aggregation (β-amyloid 1–42): noticeable fibrillation inhibition
- IC50 (SH-SY5Y cells): 52 ± 2.61 µM
- IC50 (HEK 293 cells): 60.2 ± 1 µM
